{"source": "patent US4650785A", "about": "“Pharmaceutical composition having an excellent absorption property” (Ajinomoto Company Incoporated, priority 1982, dated 1987)", "tested_on": "Female ICR-CD-1 mice", "experiment": "Oral administration of absorption promoter mixed with insulin to mice: decrease in blood glucose and elevation of blood insulin versus control", "assay_type": "in vivo", "set-up": "Degree of Elevation of Blood Insulin: unit not given here", "conditions": "oral, mice, vs control group", "experimental": "The absorption promoter samples listed in Table 2 were dissolved or suspended in 0.5% CMC-0.05M tris-HCl buffers (pH: 7.8) and the solutions or suspensions were mixed with aqueous insulin solution. Female ICR-CD-1 mice 5 to 7 weeks old were orally administered predetermined amounts of the mixtures. A predetermined duration later, the percent decrease in blood glucose and the degree of elevation of blood insulin as compared with the control group were measured. The symbol \"Z\" in the structural formulas in the table represents a benzyloxycarbonyl group. The upper figures in the columns \"effectiveness\" represent the percent decrease in blood glucose and the lower parenthesized figures indicate the degree of elevation in blood insulin.", "key": {"[1]": {"conditions": "sample 6.0 mg/10 g with insulin 2.5 U/10 g body weight, 30 minutes"}, "[2]": {"conditions": "sample 6.0 mg/10 g with insulin 2.5 U/10 g body weight, 60 minutes"}, "[3]": {"conditions": "sample 1.5 mg/10 g with insulin 2.5 U/10 g body weight, 30 minutes"}, "[4]": {"conditions": "sample 1.5 mg/10 g with insulin 2.5 U/10 g body weight, 60 minutes"}, "[5]": {"conditions": "sample 3.1 mg/10 g with insulin 2.5 U/10 g body weight, 30 minutes"}, "[6]": {"conditions": "sample 3.1 mg/10 g with insulin 2.5 U/10 g body weight, 60 minutes"}, "[7]": {"conditions": "sample 3.0 mg/10 g with insulin 2.5 U/10 g body weight, 30 minutes"}, "[8]": {"conditions": "sample 3.0 mg/10 g with insulin 2.5 U/10 g body weight, 60 minutes"}}, "note": "Where a SMILES comes first, the peptide text is derived from it. [ ]: non-standard residue; d: D form. The star is where a group is joined. Cbz = O=C(OCc1ccccc1)*", "data": [{"smiles": "O=C(Cc1cccc2ccccc12)N[C@@H](Cc1ccccc1)C(=O)O", "note": "[Sample S-1, N-[(1-naphthyl)acetyl]-L-phenylalanine]", "values": [{"measurement": "Decrease in Blood Glucose (%)", "setting": "[1]", "result": 84.9, "unit": "%"}, {"measurement": "Degree of Elevation of Blood Insulin", "setting": "[1]", "result": 56.4}, {"measurement": "Decrease in Blood Glucose (%)", "setting": "[2]", "result": 75.4, "unit": "%"}, {"measurement": "Degree of Elevation of Blood Insulin", "setting": "[2]", "result": 60.0}]}, {"smiles": "O=C(C=Cc1ccc(Cl)cc1)N[C@H](Cc1ccccc1)C(=O)O", "note": "[Sample S-25, N-(4-chlorocinnamoyl)-D-phenylalanine]", "values": [{"measurement": "Decrease in Blood Glucose (%)", "setting": "[3]", "result": 34.9, "unit": "%"}, {"measurement": "Decrease in Blood Glucose (%)", "setting": "[4]", "result": 29.5, "unit": "%"}]}, {"smiles": "O=C(N[C@H](Cc1ccccc1)C(=O)N[C@@H](Cc1ccccc1)C(=O)O)OCc1ccccc1", "note": "[Sample S-20, N-benzyloxycarbonyl-D-phenylalanyl-L-phenylalanine] (Cbz-[dF]-Phe-OH)", "values": [{"measurement": "Decrease in Blood Glucose (%)", "setting": "[3]", "result": 22.4, "unit": "%"}, {"measurement": "Degree of Elevation of Blood Insulin", "setting": "[3]", "result": 2.33}, {"measurement": "Decrease in Blood Glucose (%)", "setting": "[4]", "result": 32.7, "unit": "%"}, {"measurement": "Degree of Elevation of Blood Insulin", "setting": "[4]", "result": 2.46}]}, {"smiles": "Cc1ccc(S(=O)(=O)NC(Cc2ccccc2)C(=O)O)cc1", "note": "(racemic) [Sample S-34, N-(4-toluenesulfonyl)-DL-phenylalanine]", "values": [{"measurement": "Decrease in Blood Glucose (%)", "setting": "[1]", "result": 27.3, "unit": "%"}, {"measurement": "Degree of Elevation of Blood Insulin", "setting": "[1]", "result": 13.8}, {"measurement": "Decrease in Blood Glucose (%)", "setting": "[2]", "result": 93.1, "unit": "%"}, {"measurement": "Degree of Elevation of Blood Insulin", "setting": "[2]", "result": 6.52}]}, {"smiles": "O=C(COc1ccccc1)N[C@@H](Cc1ccc([N+](=O)[O-])cc1)C(=O)O", "note": "[Sample S-6, N-phenoxyacetyl-4-nitro-L-phenylalanine]", "values": [{"measurement": "Decrease in Blood Glucose (%)", "setting": "[5]", "result": 21.5, "unit": "%"}, {"measurement": "Degree of Elevation of Blood Insulin", "setting": "[5]", "result": 20.6}, {"measurement": "Decrease in Blood Glucose (%)", "setting": "[6]", "result": 44.7, "unit": "%"}, {"measurement": "Degree of Elevation of Blood Insulin", "setting": "[6]", "result": 21.8}]}, {"smiles": "O=C(C=Cc1cccc(C(F)(F)F)c1)N[C@H](Cc1ccccc1)C(=O)O", "note": "[Sample S-36, N-(3-trifluoromethylcinnamoyl)-D-phenylalanine]", "values": [{"measurement": "Decrease in Blood Glucose (%)", "setting": "[7]", "result": 52.0, "unit": "%"}, {"measurement": "Decrease in Blood Glucose (%)", "setting": "[8]", "result": 49.1, "unit": "%"}]}, {"smiles": "O=C(N[C@@H](Cc1ccccc1)C(=O)O)c1ccccc1", "note": "[Sample S-14, N-benzoyl-L-phenylalanine]", "values": [{"measurement": "Decrease in Blood Glucose (%)", "setting": "[1]", "result": 35.2, "unit": "%"}, {"measurement": "Degree of Elevation of Blood Insulin", "setting": "[1]", "result": 6.31}, {"measurement": "Decrease in Blood Glucose (%)", "setting": "[2]", "result": 37.8, "unit": "%"}, {"measurement": "Degree of Elevation of Blood Insulin", "setting": "[2]", "result": 3.31}]}, {"smiles": "O=C(N[C@@H](Cc1ccccc1)C(=O)NC(Cc1ccc(F)cc1)C(=O)O)OCc1ccccc1", "note": "(mixture of isomers) [Sample S-23, N-benzyloxycarbonyl-L-phenylalanyl-4-fluoro-DL-phenylalanine]", "values": [{"measurement": "Decrease in Blood Glucose (%)", "setting": "[7]", "result": 67.5, "unit": "%"}, {"measurement": "Decrease in Blood Glucose (%)", "setting": "[8]", "result": 39.4, "unit": "%"}]}, {"smiles": "O=C(NC(Cc1ccc(F)cc1)C(=O)N[C@@H](Cc1ccccc1)C(=O)O)OCc1ccccc1", "note": "(mixture of isomers) [Sample S-22, N-benzyloxycarbonyl-4-fluoro-DL-phenylalanyl-L-phenylalanine]", "values": [{"measurement": "Decrease in Blood Glucose (%)", "setting": "[7]", "result": 63.7, "unit": "%"}, {"measurement": "Decrease in Blood Glucose (%)", "setting": "[8]", "result": 51.9, "unit": "%"}]}, {"smiles": "Cc1ccc(C=CC(=O)N[C@@H](Cc2ccccc2)C(=O)O)cc1", "note": "[Sample S-27, N-(4-methylcinnamoyl)-L-phenylalanine]", "values": [{"measurement": "Decrease in Blood Glucose (%)", "setting": "[3]", "result": 61.5, "unit": "%"}, {"measurement": "Degree of Elevation of Blood Insulin", "setting": "[3]", "result": 7.76}, {"measurement": "Decrease in Blood Glucose (%)", "setting": "[4]", "result": 34.4, "unit": "%"}, {"measurement": "Degree of Elevation of Blood Insulin", "setting": "[4]", "result": 1.0}]}, {"smiles": "O=C(C=Cc1ccc(Cl)cc1)N[C@@H](Cc1ccccc1)C(=O)O", "note": "[Sample S-24, N-(4-chlorocinnamoyl)-L-phenylalanine]", "values": [{"measurement": "Decrease in Blood Glucose (%)", "setting": "[3]", "result": 37.1, "unit": "%"}, {"measurement": "Degree of Elevation of Blood Insulin", "setting": "[3]", "result": 5.46}, {"measurement": "Decrease in Blood Glucose (%)", "setting": "[4]", "result": 27.4, "unit": "%"}, {"measurement": "Degree of Elevation of Blood Insulin", "setting": "[4]", "result": 3.04}]}]}
